d = 2'-deoxy (DNA)
Columns and labels:
[1] = system: CHOP mRNA; test: CHOP mRNA knockdown by siRNA transfection (RNA interference), real-time quantitative RT-PCR; type: cell-based, rat; details: siRNA 60 nM, mean±SEM
Experimental: (§1) RT-PCR of human and rat heart samples was performed according to the Omniscript Reverse Transcription handbook (QIAGEN Inc.). The human and rat primers and probes used for quantification of BNP, GRP78, CHOP, and GAPDH were all designed according to the manufacturer's protocol (Applied Biosystems, https://www.appliedbiosystems.com/catalog/). Real-time quantitative RT-PCR was performed with an ABI PRISM 7700 Sequence Detection System (Applied Biosystems) by the relative standard curve method. The target amount was determined from the relative standard curves constructed with serial dilutions of the control total RNA.
The inventors designed 3 different short interfering RNAs (siRNA) with 3′ dTdT overhangs to knock down CHOP mRNA (CHOP siRNA-1: 5′-CCUUCACUACUCUUGACCC-3′ (SEQ ID NO. 1), siRNA-2: 5′-GAUCAAGGAAGAACUAGGA-3′ (SEQ ID NO. 2), siRNA-3: 5′-GGAGCAGGAGAAUGAGAGG-3′(SEQ ID NO. 3) and ordered Dharmacon Inc. to synthesize them. After rat cardiac myocytes were isolated, they were incubated in Dulbecco's modified Eagle's medium (Invitrogen Corporation) Opti-MEM (Invitrogen Corporation), siRNA oligonucleotides (CHOP siRNA 1-3) (60 nM) and Optifect (Invitrogen Corporation) were added on the day of cardiac myocyte isolation. […] Messenger RNA and protein levels of CHOP were measured 24 and 48 hrs after the transfection of CHOP siRNA, respectively. […]

[2] = system: CHOP; test: CHOP protein level by immunoblotting after siRNA transfection; type: cell-based, rat; details: cardiac myocytes treated with tunicamycin; protein measured 48 hrs after transfection; actin internal control
Experimental: Immunoblotting was performed as described previously (13). Primary antibodies targeting CHOP (sc-793) and actin (sc-1615) were purchased from Santa Cruz Biotechnology. Forty eight hours after the treatment of neonatal rat cardiac myocytes with tunicamycin (Sigma-Aldrich), cardiac myocytes were harvested.
(§2) The inventors designed 3 different short interfering RNAs (siRNA) with 3′ dTdT overhangs to knock down CHOP mRNA (CHOP siRNA-1: 5′-CCUUCACUACUCUUGACCC-3′ (SEQ ID NO. 1), siRNA-2: 5′-GAUCAAGGAAGAACUAGGA-3′ (SEQ ID NO. 2), siRNA-3: 5′-GGAGCAGGAGAAUGAGAGG-3′(SEQ ID NO. 3) and ordered Dharmacon Inc. to synthesize them. After rat cardiac myocytes were isolated, they were incubated in Dulbecco's modified Eagle's medium (Invitrogen Corporation) Opti-MEM (Invitrogen Corporation), siRNA oligonucleotides (CHOP siRNA 1-3) (60 nM) and Optifect (Invitrogen Corporation) were added on the day of cardiac myocyte isolation. As a negative control, cells were transfected with siRNA against firefly luciferase from Photinus pyralis (GL2 siRNA) (15). Messenger RNA and protein levels of CHOP were measured 24 and 48 hrs after the transfection of CHOP siRNA, respectively.

[3] = system: neonatal rat cardiac myocytes; test: Apoptotic cell assay (TUNEL); type: cell-based
Experimental: The terminal deoxynucleotidyl transferase-mediated dUTP nick end labeling (TUNEL) assay was performed as described previously (7). Forty eight hours after the treatment of neonatal rat cardiac myocytes with tunicamycin (Sigma-Aldrich), cells were subjected to TUNEL staining. The TUNEL-positive cardiac myocytes counted in DAPI-positive cardiac myocytes (n=100, 5 times) were expressed as a percentage.
as §2

[4] = system: cardiac myocytes; test: MTT assay (cell viability); type: cell-based, rat; details: tunicamycin for 48 hours
Experimental: Cardiac myocytes were treated with tunicamycin for 48 hours, after which cell viability was assessed by MTT assay according to the manufacturer's instructions (Cell Counting Kit-8, Wako Pure Chemical Industries, Ltd.). The percentage of viable cells was determined by taking the value for untreated cells as 100%.
as §2

[5] = system: cultured neonatal rat cardiac myocytes; test: CHOP expression by real-time quantitative RT-PCR after treatment with pharmacological ER stress inducers; type: cell-based; details: for CHOP/GAPDH: cultured cardiac myocytes 48 hours after treatment with ER stress inducer, untreated 1.0, mean±SEM
Experimental: Primary cultures of cardiac myocytes were prepared from neonatal rat hearts as described previously (13). All procedures were performed in accordance with the guidline of Osaka University School of Medicine with regard to animal care and the “Position of the American Heart Association on Research Animal Use.”
as §1

## CHOP siRNA-2: siRNA with 3′ dTdT overhangs to knock down CHOP mRNA: 5′-GAUCAAGGAAGAACUAGGA-3′ (SEQ ID NO. 2) (RNA, 3' dTdT, backbone not given here)
[1]; brefeldin A alone 8.1±0.7
  CHOP/GAPDH after transfection of siRNA, induction by brefeldin A: 2.2±0.8
[1]; thapsigargin alone 19.0±0.3
  CHOP/GAPDH after transfection of siRNA, induction by thapsigargin: 2.1±1.0
[2]
  protein level of CHOP after transfection of siRNA: almost completely suppressed
[3]; tunicamycin 48 hours, siRNA 60 nM
  Effect of siRNA on the tunicamycin-induced increase of TUNEL-positive cardiac myocytes: attenuated
[4]; siRNA 60 nM
  Effect of siRNA on the tunicamycin-induced decrease of cell viability: attenuated

## C[C@H]1CCC/C=C/[C@@H]2C[C@H](O)C[C@H]2[C@H](O)/C=C/C(=O)O1 [brefeldin A]
[5]
  CHOP/GAPDH: 8.1±0.7

## tunicamycin
[5]; cultured neonatal rat cardiac myocytes treated with tunicamycin, normalized for GAPDH, compared with 0 hour
  CHOP expression (real-time quantitative RT-PCR): increase
[3]; 48 hours after treatment with tunicamycin, vs. no treatment
  Number of TUNEL-positive cardiac myocytes: increased
[4]; untreated cells as 100%
  Cell viability (MTT assay): decreased

## C/C=C(/C)C(=O)O[C@H]1C(C)=C2[C@H]([C@@H]1OC(=O)CCCCCCC)[C@@](C)(OC(C)=O)C[C@H](OC(=O)CCC)[C@@]1(O)[C@H]2OC(=O)[C@@]1(C)O [thapsigargin]
[5]
  CHOP/GAPDH: 19.0±0.3

Source: patent US20070065850A1, “Method for diagnosis of heart failure” (OSAKA UNIVERSITY, priority 2005, published 2007)
